Test results taken from PubChem BioAssay (NCI).
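Compound exposure: 48 hours, 5 concentrations, 96-well plates. At the TGI there is no net growth.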

How the values were obtained:
Experiment in all cases: NCI anticancer screen, dose series, 48 h
786-0 renal = test system: 786-0 renal
A498 renal = test system: A498 renal
A549 NSCLC = test system: A549 NSCLC
ACHN renal = test system: ACHN renal
BT-549 breast = test system: BT-549 breast
CAKI-1 renal = test system: CAKI-1 renal
CCRF-CEM leukemia = test system: CCRF-CEM leukemia
COLO 205 colon = test system: COLO 205 colon
DU-145 prostate = test system: DU-145 prostate
EKVX NSCLC = test system: EKVX NSCLC
HCC-2998 colon = test system: HCC-2998 colon
HCT-116 colon = test system: HCT-116 colon
HCT-15 colon = test system: HCT-15 colon
HOP-62 NSCLC = test system: HOP-62 NSCLC
HOP-92 NSCLC = test system: HOP-92 NSCLC
HS 578T breast = test system: HS 578T breast
HT29 colon = test system: HT29 colon
IGROV1 ovarian = test system: IGROV1 ovarian
KM12 colon = test system: KM12 colon
LOX IMVI melanoma = test system: LOX IMVI melanoma
M14 melanoma = test system: M14 melanoma
MALME-3M melanoma = test system: MALME-3M melanoma
MCF7 breast = test system: MCF7 breast
MDA-MB-231 breast = test system: MDA-MB-231 breast
MDA-MB-435 = test system: MDA-MB-435
MDA-N = test system: MDA-N
MOLT-4 leukemia = test system: MOLT-4 leukemia
NCI-H226 lung = test system: NCI-H226 lung
NCI-H23 lung = test system: NCI-H23 lung
NCI-H460 lung = test system: NCI-H460 lung
NCI-H522 lung = test system: NCI-H522 lung
NCI/ADR-RES ovarian = test system: NCI/ADR-RES ovarian
OVCAR-3 ovarian = test system: OVCAR-3 ovarian
OVCAR-4 ovarian = test system: OVCAR-4 ovarian
OVCAR-5 ovarian = test system: OVCAR-5 ovarian
OVCAR-8 ovarian = test system: OVCAR-8 ovarian
PC-3 prostate = test system: PC-3 prostate
RPMI-8226 leukemia = test system: RPMI-8226 leukemia
RXF 393 renal = test system: RXF 393 renal
SF-268 CNS = test system: SF-268 CNS
SF-295 CNS = test system: SF-295 CNS
SF-539 CNS = test system: SF-539 CNS
SK-MEL-2 melanoma = test system: SK-MEL-2 melanoma
SK-MEL-28 melanoma = test system: SK-MEL-28 melanoma
SK-MEL-5 melanoma = test system: SK-MEL-5 melanoma
SK-OV-3 ovarian = test system: SK-OV-3 ovarian
SN12C renal = test system: SN12C renal
SNB-19 CNS = test system: SNB-19 CNS
SNB-75 CNS = test system: SNB-75 CNS
SR leukemia = test system: SR leukemia
SW-620 colon = test system: SW-620 colon
T-47D breast = test system: T-47D breast
TK-10 renal = test system: TK-10 renal
U251 CNS = test system: U251 CNS
UACC-257 melanoma = test system: UACC-257 melanoma
UACC-62 melanoma = test system: UACC-62 melanoma
UO-31 renal = test system: UO-31 renal
HL-60(TB) leukemia = test system: HL-60(TB) leukemia
K-562 leukemia = test system: K-562 leukemia

## O=C(O)CSc1ccc(N=C=S)cc1
786-0 renal
  TGI: > 100 µM
A498 renal
  TGI: > 100 µM
A549 NSCLC
  TGI: > 100 µM
ACHN renal
  TGI: > 100 µM
BT-549 breast
  TGI: > 100 µM
CAKI-1 renal
  TGI: > 100 µM
CCRF-CEM leukemia
  TGI: 51.5 µM
COLO 205 colon
  TGI: > 100 µM
DU-145 prostate
  TGI: > 100 µM
EKVX NSCLC
  TGI: > 100 µM
HCC-2998 colon
  TGI: > 100 µM
HCT-116 colon
  TGI: > 100 µM
HCT-15 colon
  TGI: > 100 µM
HOP-62 NSCLC
  TGI: > 100 µM
HOP-92 NSCLC
  TGI: > 100 µM
HS 578T breast
  TGI: > 100 µM
HT29 colon
  TGI: > 100 µM
IGROV1 ovarian
  TGI: > 100 µM
KM12 colon
  TGI: > 100 µM
LOX IMVI melanoma
  TGI: > 100 µM
M14 melanoma
  TGI: > 100 µM
MALME-3M melanoma
  TGI: 84 µM
MCF7 breast
  TGI: > 100 µM
MDA-MB-231 breast
  TGI: > 100 µM
MDA-MB-435
  TGI: > 100 µM
MDA-N
  TGI: > 100 µM
MOLT-4 leukemia
  TGI: > 100 µM
NCI-H226 lung
  TGI: > 100 µM
NCI-H23 lung
  TGI: > 100 µM
NCI-H460 lung
  TGI: > 100 µM
NCI-H522 lung
  TGI: > 100 µM
NCI/ADR-RES ovarian
  TGI: > 100 µM
OVCAR-3 ovarian
  TGI: > 100 µM
OVCAR-4 ovarian
  TGI: > 100 µM
OVCAR-5 ovarian
  TGI: > 100 µM
OVCAR-8 ovarian
  TGI: > 100 µM
PC-3 prostate
  TGI: > 100 µM
RPMI-8226 leukemia
  TGI: 57.1 µM
RXF 393 renal
  TGI: > 100 µM
SF-268 CNS
  TGI: > 100 µM
SF-295 CNS
  TGI: > 100 µM
SF-539 CNS
  TGI: 77.1 µM
SK-MEL-2 melanoma
  TGI: > 100 µM
SK-MEL-28 melanoma
  TGI: > 100 µM
SK-MEL-5 melanoma
  TGI: > 100 µM
SK-OV-3 ovarian
  TGI: > 100 µM
SN12C renal
  TGI: > 100 µM
SNB-19 CNS
  TGI: > 100 µM
SNB-75 CNS
  TGI: > 100 µM
SR leukemia
  TGI: 47.5 µM
SW-620 colon
  TGI: > 100 µM
T-47D breast
  TGI: > 100 µM
TK-10 renal
  TGI: > 100 µM
U251 CNS
  TGI: > 100 µM
UACC-257 melanoma
  TGI: > 100 µM
UACC-62 melanoma
  TGI: > 100 µM
UO-31 renal
  TGI: > 100 µM

## O=C1O/C(=C\c2ccc(O)c(Br)c2)C(c2ccc(O)c(Cl)c2)=C1Br
786-0 renal
  TGI: 40.2 µM
A498 renal
  TGI: 37.3 µM
A549 NSCLC
  TGI: > 100 µM
ACHN renal
  TGI: 33.2 µM
BT-549 breast
  TGI: 63.1 µM
CAKI-1 renal
  TGI: 75.2 µM
CCRF-CEM leukemia
  TGI: 51.1 µM
COLO 205 colon
  TGI: 32 µM
DU-145 prostate
  TGI: 43 µM
EKVX NSCLC
  TGI: 49.3 µM
HCC-2998 colon
  TGI: 16.7 µM
HCT-116 colon
  TGI: 26.5 µM
HCT-15 colon
  TGI: 25.3 µM
HL-60(TB) leukemia
  TGI: > 100 µM
HOP-62 NSCLC
  TGI: 40.9 µM
HOP-92 NSCLC
  TGI: 35.7 µM
HS 578T breast
  TGI: 70.9 µM
HT29 colon
  TGI: 25.5 µM
IGROV1 ovarian
  TGI: 47.2 µM
K-562 leukemia
  TGI: 58.5 µM
KM12 colon
  TGI: 31.2 µM
LOX IMVI melanoma
  TGI: 71.9 µM
M14 melanoma
  TGI: 36.5 µM
MALME-3M melanoma
  TGI: 37.3 µM
MCF7 breast
  TGI: 34.6 µM
MDA-MB-231 breast
  TGI: > 100 µM
MDA-MB-435
  TGI: 46.5 µM
MDA-N
  TGI: 64.9 µM
MOLT-4 leukemia
  TGI: > 100 µM
NCI-H23 lung
  TGI: 54.1 µM
NCI-H460 lung
  TGI: 48.4 µM
NCI-H522 lung
  TGI: 28.6 µM
NCI/ADR-RES ovarian
  TGI: 75.7 µM
OVCAR-3 ovarian
  TGI: 33.7 µM
OVCAR-4 ovarian
  TGI: 25.8 µM
OVCAR-5 ovarian
  TGI: 33.4 µM
OVCAR-8 ovarian
  TGI: 90 µM
PC-3 prostate
  TGI: 32.7 µM
RPMI-8226 leukemia
  TGI: 38.6 µM
RXF 393 renal
  TGI: 40.9 µM
SF-268 CNS
  TGI: 33.7 µM
SF-295 CNS
  TGI: 30.4 µM
SF-539 CNS
  TGI: 44 µM
SK-MEL-2 melanoma
  TGI: 39.2 µM
SK-MEL-28 melanoma
  TGI: 32 µM
SK-MEL-5 melanoma
  TGI: 29.8 µM
SK-OV-3 ovarian
  TGI: 40.9 µM
SN12C renal
  TGI: 86.4 µM
SNB-19 CNS
  TGI: 66.5 µM
SR leukemia
  TGI: 28.1 µM
SW-620 colon
  TGI: 34.1 µM
T-47D breast
  TGI: 47 µM
TK-10 renal
  TGI: 48.3 µM
U251 CNS
  TGI: 29.8 µM
UACC-257 melanoma
  TGI: 33.3 µM
UACC-62 melanoma
  TGI: 31.6 µM
UO-31 renal
  TGI: 77.4 µM
